Data taken from ChEMBL document CHEMBL4507281, “Data for DCP probe BI-4394” (2021).

Key:
[1] = system: Mast/stem cell growth factor receptor Kit (Homo sapiens), P10721 [V559D,T670I]; conditions: Compound concentration 100.0 nM
[2] = target: Ankyrin repeat and protein kinase domain-containing protein 1 (Homo sapiens) (UniProt Q8NFD2); conditions: Compound concentration 100.0 nM
[3] = target: Ribosomal protein S6 kinase alpha-4 (Homo sapiens) (UniProt O75676); conditions: Compound concentration 100.0 nM
[4] = target: Phosphatidylinositol 4-phosphate 5-kinase type-1 gamma (Homo sapiens) (UniProt O60331); conditions: Compound concentration 100.0 nM
[5] = target: Mitogen-activated protein kinase kinase kinase 12 (Homo sapiens) (UniProt Q12852); conditions: Compound concentration 100.0 nM
[6] = target: D(3) dopamine receptor (Homo sapiens) (UniProt P35462); conditions: Compound concentration 10.0 uM
[7] = target: Serine/threonine-protein kinase SIK1 (Homo sapiens) (UniProt P57059); conditions: Compound concentration 100.0 nM
[8] = target: Serine/threonine-protein kinase N1 (Homo sapiens) (UniProt Q16512); conditions: Compound concentration 100.0 nM
[9] = target: Phosphatidylinositol 4-phosphate 5-kinase type-1 alpha (Homo sapiens) (UniProt Q99755); conditions: Compound concentration 100.0 nM
[10] = target: Phosphatidylinositol 5-phosphate 4-kinase type-2 beta (Homo sapiens) (UniProt P78356); conditions: Compound concentration 100.0 nM
[11] = system: Epidermal growth factor receptor (Homo sapiens), P00533 [UNDEFINED MUTATION]; conditions: Compound concentration 100.0 nM
[12] = target: Cytoplasmic tyrosine-protein kinase BMX (Homo sapiens) (UniProt P51813); conditions: Compound concentration 100.0 nM
[13] = system: Epidermal growth factor receptor (Homo sapiens), P00533 [G719S]; conditions: Compound concentration 100.0 nM
[14] = system: Receptor-type tyrosine-protein kinase FLT3 (Homo sapiens), P36888 [K663Q]; conditions: Compound concentration 100.0 nM
[15] = system: Receptor-type tyrosine-protein kinase FLT3 (Homo sapiens), P36888 [UNDEFINED MUTATION]; conditions: Compound concentration 100.0 nM
[16] = target: Mitogen-activated protein kinase kinase kinase 3 (Homo sapiens) (UniProt Q99759); conditions: Compound concentration 100.0 nM
[17] = target: Serine/threonine-protein kinase SIK2 (Homo sapiens) (UniProt Q9H0K1); conditions: Compound concentration 100.0 nM
[18] = target: Cyclin-dependent kinase 18 (Homo sapiens) (UniProt Q07002); conditions: Compound concentration 100.0 nM
[19] = target: SRSF protein kinase 3 (Homo sapiens) (UniProt Q9UPE1); conditions: Compound concentration 100.0 nM
[20] = target: Cyclin-dependent kinase 3 (Homo sapiens) (UniProt Q00526); conditions: Compound concentration 100.0 nM
[21] = target: Ephrin type-B receptor 6 (Homo sapiens) (UniProt O15197); conditions: Compound concentration 100.0 nM
[22] = target: MAP kinase-activated protein kinase 5 (Homo sapiens) (UniProt Q8IW41); conditions: Compound concentration 100.0 nM
[23] = target: Receptor tyrosine-protein kinase erbB-4 (Homo sapiens) (UniProt Q15303); conditions: Compound concentration 100.0 nM
[24] = target: Serine/threonine-protein kinase TNNI3K (Homo sapiens) (UniProt Q59H18); conditions: Compound concentration 100.0 nM
[25] = target: Ribosomal protein S6 kinase alpha-1 (Homo sapiens) (UniProt Q15418); conditions: Compound concentration 100.0 nM
[26] = system: Mast/stem cell growth factor receptor Kit (Homo sapiens), P10721 [L576P]; conditions: Compound concentration 100.0 nM
[27] = target: Activin receptor type-1-like (Homo sapiens) (UniProt P37023); conditions: Compound concentration 100.0 nM
[28] = target: Testis-specific serine/threonine-protein kinase 3 (Homo sapiens) (UniProt Q96PN8); conditions: Compound concentration 100.0 nM
[29] = target: Serine/threonine-protein kinase PAK 6 (Homo sapiens) (UniProt Q9NQU5); conditions: Compound concentration 100.0 nM
[30] = target: Mitogen-activated protein kinase kinase kinase 11 (Homo sapiens) (UniProt Q16584); conditions: Compound concentration 100.0 nM
[31] = target: Tyrosine-protein kinase Fes/Fps (Homo sapiens) (UniProt P07332); conditions: Compound concentration 100.0 nM
[32] = target: Receptor-interacting serine/threonine-protein kinase 4 (Homo sapiens) (UniProt P57078); conditions: Compound concentration 100.0 nM
[33] = target: Fibroblast growth factor receptor 3 (Homo sapiens) (UniProt P22607); conditions: Compound concentration 100.0 nM
[34] = target: Vascular endothelial growth factor receptor 1 (Homo sapiens) (UniProt P17948); conditions: Compound concentration 100.0 nM
[35] = target: Serine/threonine-protein kinase PAK 2 (Homo sapiens) (UniProt Q13177); conditions: Compound concentration 100.0 nM
[36] = target: Casein kinase I isoform alpha (Homo sapiens) (UniProt P48729); conditions: Compound concentration 100.0 nM
[37] = target: STE20-like serine/threonine-protein kinase (Homo sapiens) (UniProt Q9H2G2); conditions: Compound concentration 100.0 nM
[38] = target: Beta-3 adrenergic receptor (Homo sapiens) (UniProt P13945); conditions: Compound concentration 10.0 uM
[39] = target: Dual specificity protein kinase CLK4 (Homo sapiens) (UniProt Q9HAZ1); conditions: Compound concentration 100.0 nM
[40] = target: Mitogen-activated protein kinase 14 (Homo sapiens) (UniProt Q16539); conditions: Compound concentration 100.0 nM
[41] = target: Tyrosine-protein kinase JAK2 (Homo sapiens) (UniProt O60674); conditions: Compound concentration 100.0 nM
[42] = target: Ephrin type-A receptor 4 (Homo sapiens) (UniProt P54764); conditions: Compound concentration 100.0 nM
[43] = target: Serine/threonine-protein kinase DCLK1 (Homo sapiens) (UniProt O15075); conditions: Compound concentration 100.0 nM
[44] = target: Serine/threonine-protein kinase 3 (Homo sapiens) (UniProt Q13188); conditions: Compound concentration 100.0 nM
[45] = target: Bone morphogenetic protein receptor type-1A (Homo sapiens) (UniProt P36894); conditions: Compound concentration 100.0 nM

Sequence of Ephrin type-A receptor 4 (Homo sapiens) (P54764 whole entry): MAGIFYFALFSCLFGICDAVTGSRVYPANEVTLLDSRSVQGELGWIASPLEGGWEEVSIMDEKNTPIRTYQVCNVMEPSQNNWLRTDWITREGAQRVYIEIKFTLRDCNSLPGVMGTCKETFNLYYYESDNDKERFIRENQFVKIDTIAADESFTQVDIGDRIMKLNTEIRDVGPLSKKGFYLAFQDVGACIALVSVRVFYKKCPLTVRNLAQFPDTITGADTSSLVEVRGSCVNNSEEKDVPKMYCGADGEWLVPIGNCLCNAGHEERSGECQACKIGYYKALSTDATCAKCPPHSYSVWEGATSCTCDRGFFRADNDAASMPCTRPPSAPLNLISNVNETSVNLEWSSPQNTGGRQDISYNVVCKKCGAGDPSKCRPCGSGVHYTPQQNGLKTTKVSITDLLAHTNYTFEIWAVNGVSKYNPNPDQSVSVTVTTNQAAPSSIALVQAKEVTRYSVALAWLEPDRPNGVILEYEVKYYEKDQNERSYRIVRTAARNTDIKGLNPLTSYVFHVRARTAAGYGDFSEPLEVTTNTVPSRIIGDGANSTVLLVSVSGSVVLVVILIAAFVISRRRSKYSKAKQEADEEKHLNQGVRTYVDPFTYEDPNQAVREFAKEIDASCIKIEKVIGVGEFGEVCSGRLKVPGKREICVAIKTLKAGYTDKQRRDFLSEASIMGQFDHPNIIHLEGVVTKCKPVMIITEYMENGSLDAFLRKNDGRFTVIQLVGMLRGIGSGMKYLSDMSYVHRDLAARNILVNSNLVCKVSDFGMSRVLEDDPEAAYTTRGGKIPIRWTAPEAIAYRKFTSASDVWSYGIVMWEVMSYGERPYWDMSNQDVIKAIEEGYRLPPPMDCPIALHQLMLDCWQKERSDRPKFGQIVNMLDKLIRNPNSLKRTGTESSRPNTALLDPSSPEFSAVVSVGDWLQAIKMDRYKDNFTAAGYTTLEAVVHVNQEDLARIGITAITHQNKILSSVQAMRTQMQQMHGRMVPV
Sequence of Phosphatidylinositol 5-phosphate 4-kinase type-2 beta (Homo sapiens) (P78356 whole entry): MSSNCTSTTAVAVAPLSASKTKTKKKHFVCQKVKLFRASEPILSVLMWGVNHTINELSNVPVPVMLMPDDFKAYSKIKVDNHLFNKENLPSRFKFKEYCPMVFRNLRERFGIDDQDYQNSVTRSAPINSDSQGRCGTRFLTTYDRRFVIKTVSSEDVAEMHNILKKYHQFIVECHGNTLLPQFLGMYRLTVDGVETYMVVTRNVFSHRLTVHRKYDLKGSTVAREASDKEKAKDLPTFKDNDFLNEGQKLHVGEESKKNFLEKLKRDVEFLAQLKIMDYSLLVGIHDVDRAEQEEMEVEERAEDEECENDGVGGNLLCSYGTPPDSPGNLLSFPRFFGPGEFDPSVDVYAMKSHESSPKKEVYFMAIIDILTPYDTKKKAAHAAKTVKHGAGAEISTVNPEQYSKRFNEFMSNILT
Sequence of Mitogen-activated protein kinase 14 (Homo sapiens) (Q16539 whole entry): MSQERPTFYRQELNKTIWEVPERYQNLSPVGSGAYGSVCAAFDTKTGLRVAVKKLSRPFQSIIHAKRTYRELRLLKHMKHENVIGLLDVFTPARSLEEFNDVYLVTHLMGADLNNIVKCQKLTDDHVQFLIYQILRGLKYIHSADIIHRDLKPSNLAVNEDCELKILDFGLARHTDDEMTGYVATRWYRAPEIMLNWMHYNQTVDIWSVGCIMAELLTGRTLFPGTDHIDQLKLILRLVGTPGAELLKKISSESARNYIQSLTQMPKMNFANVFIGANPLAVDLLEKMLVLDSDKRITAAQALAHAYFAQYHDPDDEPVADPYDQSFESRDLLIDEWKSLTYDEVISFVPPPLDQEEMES
Sequence of Activin receptor type-1-like (Homo sapiens) (P37023 whole entry): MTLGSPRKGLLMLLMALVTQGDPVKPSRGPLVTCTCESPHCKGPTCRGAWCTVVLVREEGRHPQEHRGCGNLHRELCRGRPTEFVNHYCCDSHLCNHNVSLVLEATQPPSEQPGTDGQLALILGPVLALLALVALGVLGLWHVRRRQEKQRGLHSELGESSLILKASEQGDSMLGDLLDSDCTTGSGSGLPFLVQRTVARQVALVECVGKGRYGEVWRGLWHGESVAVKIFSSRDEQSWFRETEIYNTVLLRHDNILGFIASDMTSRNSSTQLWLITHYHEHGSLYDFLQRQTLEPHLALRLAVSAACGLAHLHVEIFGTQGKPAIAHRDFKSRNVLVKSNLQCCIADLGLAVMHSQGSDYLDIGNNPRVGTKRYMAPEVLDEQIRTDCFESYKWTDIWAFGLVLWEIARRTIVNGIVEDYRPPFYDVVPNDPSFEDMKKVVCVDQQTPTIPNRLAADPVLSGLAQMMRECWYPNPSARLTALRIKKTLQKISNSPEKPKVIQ
Sequence of Testis-specific serine/threonine-protein kinase 3 (Homo sapiens) (Q96PN8 whole entry): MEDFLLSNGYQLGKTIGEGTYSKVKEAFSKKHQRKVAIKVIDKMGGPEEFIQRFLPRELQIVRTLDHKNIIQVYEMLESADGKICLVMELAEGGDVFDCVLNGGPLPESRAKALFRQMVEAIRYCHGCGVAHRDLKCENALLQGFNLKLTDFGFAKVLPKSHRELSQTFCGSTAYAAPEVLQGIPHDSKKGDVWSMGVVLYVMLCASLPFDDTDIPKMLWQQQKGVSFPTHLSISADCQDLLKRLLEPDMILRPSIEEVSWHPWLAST
Sequence of Mitogen-activated protein kinase kinase kinase 11 (Homo sapiens) (Q16584 whole entry, looked up): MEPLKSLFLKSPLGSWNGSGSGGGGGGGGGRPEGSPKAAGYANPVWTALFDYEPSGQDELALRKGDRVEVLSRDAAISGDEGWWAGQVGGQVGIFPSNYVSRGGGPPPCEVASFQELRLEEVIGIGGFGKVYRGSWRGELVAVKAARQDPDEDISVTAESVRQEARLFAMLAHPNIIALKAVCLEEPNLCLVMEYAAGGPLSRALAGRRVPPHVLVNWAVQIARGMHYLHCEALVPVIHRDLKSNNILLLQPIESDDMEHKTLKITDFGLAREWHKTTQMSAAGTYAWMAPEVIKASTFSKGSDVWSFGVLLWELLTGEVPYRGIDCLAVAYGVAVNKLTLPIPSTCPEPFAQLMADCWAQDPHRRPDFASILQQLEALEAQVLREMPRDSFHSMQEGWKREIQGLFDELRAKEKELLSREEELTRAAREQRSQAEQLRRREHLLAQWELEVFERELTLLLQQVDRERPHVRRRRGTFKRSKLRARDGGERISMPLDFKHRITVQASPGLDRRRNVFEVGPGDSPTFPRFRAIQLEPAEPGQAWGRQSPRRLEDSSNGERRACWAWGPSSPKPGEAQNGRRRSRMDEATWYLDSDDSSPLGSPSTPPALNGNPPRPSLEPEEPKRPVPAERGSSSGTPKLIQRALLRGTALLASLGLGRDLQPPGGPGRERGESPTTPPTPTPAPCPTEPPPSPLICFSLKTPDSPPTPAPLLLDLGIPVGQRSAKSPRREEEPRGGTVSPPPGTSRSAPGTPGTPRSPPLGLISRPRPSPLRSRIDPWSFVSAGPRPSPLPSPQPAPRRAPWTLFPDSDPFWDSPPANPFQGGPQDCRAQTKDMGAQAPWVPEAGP
Sequence of Ankyrin repeat and protein kinase domain-containing protein 1 (Homo sapiens) (Q8NFD2 whole entry, the tested form may be a part): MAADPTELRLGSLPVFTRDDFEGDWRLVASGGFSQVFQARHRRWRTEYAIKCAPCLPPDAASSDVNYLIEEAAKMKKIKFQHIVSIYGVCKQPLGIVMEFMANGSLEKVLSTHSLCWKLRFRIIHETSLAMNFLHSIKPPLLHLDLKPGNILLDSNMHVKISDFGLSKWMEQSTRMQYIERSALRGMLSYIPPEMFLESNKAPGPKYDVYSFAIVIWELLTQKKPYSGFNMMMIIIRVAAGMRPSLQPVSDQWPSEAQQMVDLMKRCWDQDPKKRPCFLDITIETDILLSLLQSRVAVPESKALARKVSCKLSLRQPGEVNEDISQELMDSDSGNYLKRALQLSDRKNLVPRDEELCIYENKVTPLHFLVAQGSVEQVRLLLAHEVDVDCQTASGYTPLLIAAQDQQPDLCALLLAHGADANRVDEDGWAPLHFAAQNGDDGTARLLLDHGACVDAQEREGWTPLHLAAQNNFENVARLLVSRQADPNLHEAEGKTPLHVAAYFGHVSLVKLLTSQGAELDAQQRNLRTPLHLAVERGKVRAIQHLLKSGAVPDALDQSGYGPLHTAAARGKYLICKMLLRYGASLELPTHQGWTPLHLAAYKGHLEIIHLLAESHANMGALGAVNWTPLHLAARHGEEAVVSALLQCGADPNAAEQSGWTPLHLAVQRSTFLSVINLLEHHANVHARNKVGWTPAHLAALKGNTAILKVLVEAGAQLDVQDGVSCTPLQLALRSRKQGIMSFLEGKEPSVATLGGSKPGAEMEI
Sequence of Serine/threonine-protein kinase SIK1 (Homo sapiens) (P57059 whole entry): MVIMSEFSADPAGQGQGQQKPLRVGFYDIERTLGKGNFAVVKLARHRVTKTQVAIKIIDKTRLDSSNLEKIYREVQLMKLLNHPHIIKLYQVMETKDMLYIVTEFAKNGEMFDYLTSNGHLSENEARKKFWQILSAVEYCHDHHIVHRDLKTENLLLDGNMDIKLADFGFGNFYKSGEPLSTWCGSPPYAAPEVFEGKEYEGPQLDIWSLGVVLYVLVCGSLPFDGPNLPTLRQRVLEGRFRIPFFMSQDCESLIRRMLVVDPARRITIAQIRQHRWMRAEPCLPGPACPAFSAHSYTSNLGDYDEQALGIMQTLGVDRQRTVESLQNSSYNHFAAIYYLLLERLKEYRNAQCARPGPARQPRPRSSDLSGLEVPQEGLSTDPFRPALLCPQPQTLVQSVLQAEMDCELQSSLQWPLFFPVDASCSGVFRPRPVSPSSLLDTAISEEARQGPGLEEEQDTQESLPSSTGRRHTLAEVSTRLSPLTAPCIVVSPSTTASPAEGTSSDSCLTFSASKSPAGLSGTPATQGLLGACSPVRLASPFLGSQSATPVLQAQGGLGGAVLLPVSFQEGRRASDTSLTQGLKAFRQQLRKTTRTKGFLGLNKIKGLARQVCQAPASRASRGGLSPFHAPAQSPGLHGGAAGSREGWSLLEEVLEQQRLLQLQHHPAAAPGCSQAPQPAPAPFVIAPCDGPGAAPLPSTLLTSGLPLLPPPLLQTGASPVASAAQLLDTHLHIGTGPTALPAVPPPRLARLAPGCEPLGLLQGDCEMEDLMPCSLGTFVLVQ

## CCOC(=O)c1cc2cc(-c3cc(C(=O)NCc4ccc(C(=O)O)cc4)nn3C)ccc2[nH]1 [BI 4394]
[1]
  residual activity: 96%
[2]
  residual activity: 100%
[3]
  residual activity: 86%
[4]
  residual activity: 100%
[5]
  residual activity: 79%
[6]
  inhibition: 2.74%
[7]
  residual activity: 97%
[8]
  residual activity: 100%
[9]
  residual activity: 100%
[10]
  residual activity: 100%
[11]
  residual activity: 100%
[12]
  residual activity: 82%
[13]
  residual activity: 100%
[14]
  residual activity: 90%
[15]
  residual activity: 98%
[16]
  residual activity: 94%
[17]
  residual activity: 100%
[18]
  residual activity: 100%
[19]
  residual activity: 100%
[20]
  residual activity: 43%
[21]
  residual activity: 77%
[22]
  residual activity: 92%
[23]
  residual activity: 96%
[24]
  residual activity: 100%
[25]
  residual activity: 97%
[26]
  residual activity: 100%
[27]
  residual activity: 68%
[28]
  residual activity: 91%
[29]
  residual activity: 99%
[30]
  residual activity: 88%
[31]
  residual activity: 94%
[32]
  residual activity: 82%
[33]
  residual activity: 97%
[34]
  residual activity: 97%
[35]
  residual activity: 100%
[36]
  residual activity: 88%
[37]
  residual activity: 98%
[38]
  inhibition: -6.63%
[39]
  residual activity: 89%
[40]
  residual activity: 100%
[41]
  residual activity: 95%
[42]
  residual activity: 96%
[43]
  residual activity: 86%
[44]
  residual activity: 96%
[45]
  residual activity: 87%

## Cn1nc(C(=O)NCc2ccc(C(=O)O)cc2)cc1-c1ccc2[nH]ccc2c1 [BI 4395]
[1]
  residual activity: 77%
[2]
  residual activity: 100%
[3]
  residual activity: 81%
[4]
  residual activity: 91%
[5]
  residual activity: 100%
[6]
  inhibition: 1.67%
[7]
  residual activity: 100%
[8]
  residual activity: 90%
[9]
  residual activity: 63%
[10]
  residual activity: 93%
[11]
  residual activity: 100%
[12]
  residual activity: 98%
[13]
  residual activity: 66%
[14]
  residual activity: 86%
[15]
  residual activity: 91%
[16]
  residual activity: 78%
[17]
  residual activity: 90%
[18]
  residual activity: 97%
[19]
  residual activity: 100%
[20]
  residual activity: 88%
[21]
  residual activity: 96%
[22]
  residual activity: 89%
[23]
  residual activity: 98%
[24]
  residual activity: 100%
[25]
  residual activity: 100%
[26]
  residual activity: 59%
[27]
  residual activity: 97%
[28]
  residual activity: 97%
[29]
  residual activity: 96%
[30]
  residual activity: 87%
[31]
  residual activity: 95%
[32]
  residual activity: 68%
[33]
  residual activity: 93%
[34]
  residual activity: 89%
[35]
  residual activity: 23%
[36]
  residual activity: 81%
[37]
  residual activity: 65%
[38]
  inhibition: 2.13%
[39]
  residual activity: 69%
[40]
  residual activity: 100%
[41]
  residual activity: 90%
[42]
  residual activity: 100%
[43]
  residual activity: 88%
[44]
  residual activity: 91%
[45]
  residual activity: 94%
